# Test results: patent US7179613B2, “Methods of screening for a candidate modulator of glucokinase” (Vanderbilt University, priority 2003, dated 2007)
# Substitutions are numbered along the chain they refer to. Numbers in names are those of the source.
# T1: GK association with nNOS (Mus musculus, UniProt P52792)
# T1 construct: the inventors immunoprecipitated endogenous GK from cell lysates; endogenous in cells; host or cells: βTC3 cells
# T1 sequence (P52792 1-465): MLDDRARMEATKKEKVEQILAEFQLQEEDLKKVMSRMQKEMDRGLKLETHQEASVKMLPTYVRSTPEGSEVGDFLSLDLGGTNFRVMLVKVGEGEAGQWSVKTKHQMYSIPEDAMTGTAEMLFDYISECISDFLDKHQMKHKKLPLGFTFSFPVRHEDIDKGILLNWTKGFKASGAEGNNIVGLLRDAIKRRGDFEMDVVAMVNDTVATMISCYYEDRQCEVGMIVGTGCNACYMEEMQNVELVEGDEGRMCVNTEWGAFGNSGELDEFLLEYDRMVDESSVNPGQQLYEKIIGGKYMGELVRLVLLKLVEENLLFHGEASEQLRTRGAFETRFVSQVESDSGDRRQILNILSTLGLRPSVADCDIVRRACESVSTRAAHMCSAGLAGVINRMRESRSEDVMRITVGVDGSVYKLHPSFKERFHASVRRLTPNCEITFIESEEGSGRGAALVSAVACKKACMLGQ
# B1: GK-C371S: glucokinase with cysteine 371 mutated to serine; recombinant His-tagged, or YFP-tagged in cells (protein, UniProt P35557 1-465, looked up, variant C371S)
# Hexokinase-4: MLDDRARMEAAKKEKVEQILAEFQLQEEDLKKVMRRMQKEMDRGLRLETHEEASVKMLPTYVRSTPEGSEVGDFLSLDLGGTNFRVMLVKVGEGEEGQWSVKTKHQMYSIPEDAMTGTAEMLFDYISECISDFLDKHQMKHKKLPLGFTFSFPVRHEDIDKGILLNWTKGFKASGAEGNNVVGLLRDAIKRRGDFEMDVVAMVNDTVATMISCYYEDHQCEVGMIVGTGCNACYMEEMQNVELVEGDEGRMCVNTEWGAFGDSGELDEFLLEYDRLVDESSANPGQQLYEKLIGGKYMGELVRLVLLRLVDENLLFHGEASEQLRTRGAFETRFVSQVESDTGDRKQIYNILSTLGLRPSTTDCDIVRRASESVSTRAAHMCSAGLAGVINRMRESRSEDVMRITVGVDGSVYKLHPSFKERFHASVRRLTPSCEITFIESEEGSGRGAALVSAVACKKACMLGQ
# modifications: His tag or YFP fusion
# notes: glucokinase with cysteine 371 mutated to serine; recombinant His-tagged, or YFP-tagged in cells
# B2: C364S: glucokinase with cysteine 364 mutated to serine, YFP-tagged construct (protein, UniProt P35557 1-465, looked up, variant C364S)
# Hexokinase-4: B1 Hexokinase-4 with C364S, S371C
# modifications: YFP fusion
# notes: glucokinase with cysteine 364 mutated to serine, YFP-tagged construct
# Tests used:
# GK association with nNOS [1] = assay type: binding; conditions: 1 mM DEANO in PBS, 37° C., 10 min
# GK association with nNOS [2] = biological target: T1, GK association with nNOS; assay type: binding; conditions: 1 mM DEANO in PBS, 37° C., 10 min
# GK [3] = assay: Intramolecular FRET of CFP-GK-YFP (GK conformation); assay type: cell-based; conditions: 5 min; for Insulin-stimulated changes in FRET of mutant CFP-GK-YFP: 100 nM insulin
# Method: (§1) Cell culture. βTC3 cells were cultured as described (Rizzo et al., 2002) and were transferred to media containing 1 g/L glucose overnight prior to observation. […] For FRAP, CFP-GK-YFP FRET, and nitrosylation experiments, DNA plasmids containing GK-YFP constructs, proinsulin-CFP, or CFP-GK-YFP were introduced by electroporation prior to seeding as previously described (Rizzo et al., 2002). For studies requiring co-transfection, plasmid DNA encoding the indicated constructs were transfected using either a ratio of (2 μg nNOS-CFP:1 μg GK-YFP:6 μl FUGENE (Roche Applied Science)) or of (1 μg nNOS-CFP-nuc:2 μg GK-YFP:6 μl FUGENE). Transfection was for 4 h in serum-free media, followed by replacement with low-glucose media. Observation took place the following day.
# (§2) Microscopy. βTC3 cells were labeled with 5 μM DAF-FM diacetate (Molecular Probes) for 25 min at 25° C. in BSA free BMHH. Observation was with 488 nm excitation and 505–530 nm collection by laser scanning confocal microscopy (Zeiss LSM510). During observation, cells were heated to 32° C. using a Bioptechs Delta T system. FRAP and intramolecular FRET measurements were performed on cultured βTC3 cells as previously described (Rizzo et al., 2002). Statistical significance (p<0.05 by ANOVA or t-test as appropriate) is denoted by * and was determined from at least three granules in the same region or at least three cells for the FRET studies as compared to pre-treatment FRET ratios. Data shown is representative of at least 3 independent trials. Observation of nNOS-CFP-nuc and GK-YFP were performed using the same filter settings as the FRAP measurements. FRET between nNOS-CFP and GK-YFP was observed using 864 nm two-photon excitation along with a KP700/514 main beam splitter and standard CFP and YFP collection using a 40×, 1.3NA F-FLUAR oil immersion objective lens. For the FRET measurements, the temperature was maintained at 37° C. using a Zeiss S-M incubator controlled by the CTI temperature regulator along with humidification and an objective heater.
# GK [4] = assay: Detection of S-nitrosylated GK (biotinylation, neutravidin-agarose or immunoprecipitation, Western blot); assay type: cell-based; conditions: for Nitrosylated GK in neutravidin precipitates: βTC3 cell lysates, insulin alone or L-NAME in addition to insulin; for S-nitrosylation of mutant GK-YFP: mutant GK-YFP constructs expressed in βTC3 cells
# Method: Detection of nitrosylated proteins. S-nitrosylated proteins were biotinylated and isolated from cell lysates using the protocol described (Jaffrey et al., 2001). Briefly, cells were lysed in HEN buffer (250 mM Hepes pH7.7, 1 mM EDTA, 0.1 mM neocuproine) using 0.5% triton X-100 and 0.5% Cholate prior to protection of free cysteines with methyl methanethiosulfonate (Pierce) and derivatization of S-nitrosylated cysteines with ascorbic acid and biotin-HPDP (Pierce). Biotinylated proteins were either isolated by binding to neutravidin-agarose (Pierce), followed by 5 washes with a high salt buffer (20 mM Hepes pH 7.7, 600 mM NaCl, 1 mM EDTA and 0.5% Triton X-100) and elution in HNE buffer (20 mM Hepes pH 7.7, 100 mM NaCl, 1 mM EDTA) plus 100 mM 2-mercaptoethanol. Alternatively, GK-YFPs were isolated by immunopreciptation with A.V. Peptide Antibody (BD BioSciences Clontech) preconjugated to IgG agarose (Sigma). Western blots were then performed on eluted proteins to detect GK and nitrosylated proteins.
# [5] = tested on: interaction between nNOS and GK; assay: FRET between nNOS-CFP and GK-YFP in living cells (two-photon microscopy); assay type: cell-based, rat; conditions: insulin 100 nM
# Method: as §1
# Generation of constructs. […]
# (§3) Microscopy. βTC3 cells were labeled with 5 μM DAF-FM diacetate (Molecular Probes) for 25 min at 25° C. in BSA free BMHH. […] Statistical significance (p<0.05 by ANOVA or t-test as appropriate) is denoted by * and was determined from at least three granules in the same region or at least three cells for the FRET studies as compared to pre-treatment FRET ratios. […]
# βTC3 cells = assay: NO production in βTC3 cells loaded with DAF-FM (confocal microscopy); assay type: cell-based; conditions: βTC3 cells starved 4 h, 100 nM insulin vs untreated cells
# Method: as §1
# as §3, with “BMHH. Observation was with 488 nm excitation and 505–530 nm collection by laser scanning confocal microscopy (Zeiss LSM510). During observation, cells were heated to 32° C. using a Bioptechs Delta T system.” for “BMHH.”
# GK [6] = assay: FRAP of GK-YFP to CFP-labeled insulin granules (GK association with secretory granules); assay type: cell-based; conditions: for Insulin-stimulated FRAP of mutant GK-YFP to CFP labeled granules: βTC3 cells, mutant GK-YFP and proinsulin-CFP
# Method: as §1, §2
molecule,measurement,setting,value
"CCN(CC)/[N+]([O-])=N/O.CCNCC [DEANO, diethylamine nitric oxide]",Elution of nNOS from GK(C371S)-YFP precipitates,GK association with nNOS [1],not from GK(C371S)-YFP precipitates
same,Elution of nNOS from endogenous GK and GK-YFP precipitates,GK association with nNOS [2],resulted in elution of nNOS
insulin,FRET ratio between CFP and YFP on opposing ends of GK,"GK [3]; βTC3 cells, insulin 100 nM",decreases
same,Nitrosylated GK in neutravidin precipitates,GK [4],detected
same,FRET between nNOS-CFP and GK(C371S)-YFP,[5],increased
same,FRET between nNOS-CFP and GK-YFP,[5],decrease
same,NO production (fluorescence of DAF-FM),βTC3 cells,rapid increase in the fluorescence of DAF-FM
"CC(=O)N[C@H](C(=O)O)C(C)(C)SN=O [SNAP, S-nitroso-N-acetylpenicillamin]",Reversal of NOS inhibition in GK-YFP FRAP,"GK [6]; SNAP 100 μM, 1 min, after L-NAME and insulin",effects of NOS inhibition were reversed
"COC(=O)[C@@H](N)CCCNC(=N)N[N+](=O)[O-] [L-NAME, N^G-nitro-L-arginine-methyl ester, reference compound]",Effect on insulin-induced decrease of the CFP-GK-YFP FRET ratio,"GK [3]; L-NAME 5 mM, 10 min before insulin 100 nM",prevented the decrease in the FRET ratio
same,Nitrosylated GK in neutravidin precipitates,GK [4],not
same,Effect on insulin-stimulated GK-YFP FRAP,"GK [6]; L-NAME 5 mM, 10 min pretreatment, then insulin 100 nM, 5 min",blocked the stimulatory effects of insulin on GK-YFP FRAP
same,Glucose stimulated activation of GK FRAP and FRET,"GK [6]; treatment with L-NAME, data not shown",sensitive
B1,Insulin-stimulated changes in FRET of mutant CFP-GK-YFP,GK [3]; βTC3 cells,stopped
same,S-nitrosylation of mutant GK-YFP,GK [4],eliminated GK nitrosylation
same,Insulin-stimulated FRAP of mutant GK-YFP to CFP labeled granules,GK [6],stopped insulin-stimulated FRAP
B2,Insulin-stimulated changes in FRET of mutant CFP-GK-YFP,GK [3]; βTC3 cells,did not have a significant effect
same,S-nitrosylation of mutant GK-YFP,GK [4],slight decrease in the amount of nitrosylated GK
same,Insulin-stimulated FRAP of mutant GK-YFP to CFP labeled granules,GK [6],did not have a significant effect
